In test [1] the target is T1, Brd4 (Homo sapiens, UniProt O60885). As to the kind of experiment: Test Example 3: HeLa cells, Western blot Brd4/actin (Testing Method C). The note with it: 24 hours, 1 or less = degradation promoted. Further details: endogenous in cells; host or cells: HeLa. It is filed as cell-based. As for the experimental part:
(§1) Test Example 3: Evaluation Using HeLa Cell (Testing Method C)
(§2) HeLa cells were inoculated to Dulbecco's Modified Eagle Medium (DMEM) and cultured for 24 hours. A test compound (specifically, compounds of Examples 47 to 52, 59 and 60) was added thereto at the final concentration shown in Table 2, followed by incubation for 24 hours under conditions of 37° C./5% CO2. The cells were washed with PBS three times and treated with a cell lysis solution containing a proteolytic enzyme inhibitor to obtain a cell extract. The cell extract was subjected to SDS-PAGE. After the electrophoresis, Brd4, FKBP12 or MetAP2 and actin were detected by Western blot. The ratio of the Brd4, FKBP12 or MetAP2/actin value of the drug-treated cells to the Brd4, FKBP12 or MetAP2/actin value of a control group in drug-untreated cells was regarded as an activity value. A value of 1 or less represents that degradation of Brd4, FKBP12 or MetAP2 was promoted.
Background: In western blotting, separated proteins are transferred to a membrane and probed.

For test [2], the system named is EmGFP-HaloTag. As to the kind of experiment: Test Example 5: Atg5+/+ MEF cells overexpressing EmGFP-HaloTag, Western blot GFP/actin. In kind it is cell-based, mouse. The note with it: Atg5 WT MEF, 10 μM. As for the experimental part:
(§3) Test Example 5: Evaluation Using Atg5KO MEF
(§4) Atg5^−/− mouse embryonic fibroblast (MEF) cells or Atg5^+/+ MEF cells were inoculated to Dulbecco's Modified Eagle Medium (DMEM) and cultured for 24 hours. Cells overexpressing EmGFP-HaloTag were obtained by transfection with a plasmid pCMV-EmGFP-HaloTag (SEQ ID NO: 1) encoding EmGFP-HaloTag. On the next day, the compound of Example 56 was added thereto at a final concentration of 10 μM, followed by incubation for 24 hours under conditions of 37° C./5% CO2. The cells were washed with PBS three times and treated with a cell lysis solution containing a proteolytic enzyme inhibitor to obtain a cell extract. The cell extract was subjected to SDS-PAGE. After the electrophoresis, GFP and actin were detected by Western blot. The ratio of the GFP/actin value of the drug-treated cells to the GFP/actin value of a control group in drug-untreated cells was regarded as an activity value. A value of 1 or less represents that degradation of EmGFP-HaloTag was promoted.

Test [3] has as its system EmGFP-HaloTag. As to the kind of experiment: Test Example 1: HeLa cells stably expressing EmGFP-HaloTag, Western blot GFP/actin (Testing Method A). It is filed as cell-based. The note with it: 10 uM, 24 hours, 1 or less = degradation promoted. The procedure, abridged:
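HeLa cells stably expressing EmGFP-HaloTag exposed to compound for 24 h at 37 °C/5% CO2. Lysates analysed by SDS-PAGE/Western blot for GFP and actin; activity value = GFP/actin of treated cells relative to untreated control, ≤1 indicating promoted degradation.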

Test [4] deals with EmGFP-HaloTag. As to the kind of experiment: Test Example 5: Atg5-/- MEF cells overexpressing EmGFP-HaloTag, Western blot GFP/actin. It is filed as cell-based, mouse. The settings on record: Atg5 KO MEF, 10 μM. As for the experimental part:
as §3, §4

In test [5] the target is T1, Brd4. Nature of the test: Test Example 4: A549 cells, Western blot Brd4/actin (Testing Method D). It is filed as cell-based. Further details: endogenous in cells. The note with it: BRD4, 1 uM, 24 hours, 1 or less = degradation promoted. As for the experimental part:
Test Example 4: Evaluation Using A549 Cell (Testing Method D)
as §2, with “A549” for “HeLa”, “57” for “47 to 52, 59”, “58)” for “60)”, “Brd4” for “Brd4, FKBP12 or MetAP2”, “Brd4/actin” for “Brd4, FKBP12 or MetAP2/actin”

Test [6] addresses T2, FKBP12 (Homo sapiens, UniProt P62942).
T2 construct: endogenous in cells; host or cells: HeLa
Nature of the test: Test Example 3: HeLa cells, Western blot FKBP12/actin (Testing Method C). In kind it is cell-based. The note with it: FKBP12, 1 uM, 24 hours, 1 or less = degradation promoted. As for the experimental part: as §1, §2

Test [7] deals with T3, MetAP2 (Homo sapiens, UniProt P50579).
T3 construct: endogenous in cells; host or cells: HeLa
T3 sequence (P50579 whole entry): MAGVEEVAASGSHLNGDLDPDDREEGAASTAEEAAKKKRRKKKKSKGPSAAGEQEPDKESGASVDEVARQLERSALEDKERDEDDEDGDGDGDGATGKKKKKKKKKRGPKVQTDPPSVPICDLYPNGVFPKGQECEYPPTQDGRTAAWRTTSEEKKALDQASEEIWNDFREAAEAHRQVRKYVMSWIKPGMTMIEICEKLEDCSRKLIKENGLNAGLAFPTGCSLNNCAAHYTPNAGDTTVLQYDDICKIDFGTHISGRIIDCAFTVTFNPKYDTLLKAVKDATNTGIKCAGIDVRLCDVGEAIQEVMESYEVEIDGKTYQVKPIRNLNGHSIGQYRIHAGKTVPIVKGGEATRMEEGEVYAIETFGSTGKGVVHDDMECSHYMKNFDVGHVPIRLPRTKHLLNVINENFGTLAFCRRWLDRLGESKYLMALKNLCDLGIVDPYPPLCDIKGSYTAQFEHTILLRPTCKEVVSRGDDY
Nature of the test: Test Example 3: HeLa cells, Western blot MetAP2/actin (Testing Method C). In kind it is cell-based. The settings on record: MetAP2, 0.1 uM, 24 hours, 1 or less = degradation promoted. As for the experimental part: as §1, §2

T2 sequence (P62942 whole entry): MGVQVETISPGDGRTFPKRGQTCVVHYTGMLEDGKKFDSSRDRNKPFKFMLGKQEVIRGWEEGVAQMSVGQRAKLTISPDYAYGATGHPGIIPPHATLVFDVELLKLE

For the compound `Cc1sc2c(c1C)C(c1ccc(Cl)cc1)=N[C@@H](CC(=O)NCCOCCOCCOCCNC(=O)c1nc3c(=O)[nH]c(N)nc3n1Cc1ccc(F)cc1)c1nnc(C)n1-2` [Example 47, 2-Amino-N-(14-((6S)-4-(4-chlorophenyl)-2,3,9-trimethyl-6H-thieno[3,2-f][1,2,4]triazolo[4,3-a][1,4]diazepin-6-yl)-13-oxo-3,6,9-trioxa-12-azatetradec-1-yl)-9-(4-fluorobenzyl)-6-oxo-6,9-dihydro-1H-purine-8-carboxamide], in test [1] (BRD4, 1 uM), the “Activity value (Brd4/actin of drug-treated cells relative to drug-untreated control)” value is listed as 0.4.
Consider `Cc1sc2c(c1C)C(c1ccc(Cl)cc1)=N[C@@H](CC(=O)NCCOCCOCCOCCNC(=O)c1cccc(-c3nc4c(=O)[nH]c(N)nc4n3Cc3ccc(F)cc3)c1)c1nnc(C)n1-2` [Example 48, 3-(2-Amino-9-(4-fluorobenzyl)-6-oxo-6,9-dihydro-1H-purin-8-yl)-N-(14-((6S)-4-(4-chlorophenyl)-2,3,9-trimethyl-6H-thieno[3,2-f][1,2,4]triazolo[4,3-a][1,4]diazepin-6-yl)-13-oxo-3,6,9-trioxa-12-azatetradec-1-yl)benzamide], for which the “Activity value (Brd4/actin of drug-treated cells relative to drug-untreated control)” value in test [1] (BRD4, 10 uM) is recorded as 0.8.
Regarding `CC(=O)N[C@@H](CSc1nc2c(=O)[nH]c(N)nc2n1Cc1ccc(C)cc1)C(=O)NCCOCCOCCOCCNC(=O)C[C@@H]1N=C(c2ccc(Cl)cc2)c2c(sc(C)c2C)-n2c(C)nnc21` [Example 49, N^2-Acetyl-S-(2-amino-9-(4-methylbenzyl)-6-oxo-6,9-dihydro-1H-purin-8-yl)-N-(14-((6S)-4-(4-chlorophenyl)-2,3,9-trimethyl-6H-thieno[3,2-f][1,2,4]triazolo[4,3-a][1,4]diazepin-6-yl)-13-oxo-3,6,9-trioxa-12-azatetradec-1-yl)-L-cysteinamide], the “Activity value (Brd4/actin of drug-treated cells relative to drug-untreated control)” value in test [1] (BRD4, 1 uM) stood at 0.8.
Still for that read-out and setting: to `CC(=O)N[C@@H](CSc1nc2c(=O)[nH]c(N)nc2n1Cc1ccc(Cl)cc1)C(=O)NCCOCCOCCOCCNC(=O)C[C@@H]1N=C(c2ccc(Cl)cc2)c2c(sc(C)c2C)-n2c(C)nnc21` [Example 50, N^2-Acetyl-S-(2-amino-9-(4-chlorobenzyl)-6-oxo-6,9-dihydro-1H-purin-8-yl)-N-(14-((6S)-4-(4-chlorophenyl)-2,3,9-trimethyl-6H-thieno[3,2-f][1,2,4]triazolo[4,3-a][1,4]diazepin-6-yl)-13-oxo-3,6,9-trioxa-12-azatetradec-1-yl)-L-cysteinamide] belongs 0.2; to `CC(=O)N[C@@H](CSc1nc2c(=O)[nH]c(N)nc2n1Cc1ccc(F)cc1)C(=O)NCCOCCOCCOCCNC(=O)C[C@@H]1N=C(c2ccc(Cl)cc2)c2c(sc(C)c2C)-n2c(C)nnc21` [Example 51, N^2-Acetyl-S-(2-amino-9-(4-fluorobenzyl)-6-oxo-6,9-dihydro-1H-purin-8-yl)-N-(14-((6S)-4-(4-chlorophenyl)-2,3,9-trimethyl-6H-thieno[3,2-f][1,2,4]triazolo[4,3-a][1,4]diazepin-6-yl)-13-oxo-3,6,9-trioxa-12-azatetradec-1-yl)-L-cysteinamide], 0.6.
With `Cc1sc2c(c1C)C(c1ccc(Cl)cc1)=N[C@@H](CC(=O)NCCOCCOCCOCCNC(=O)/C=C/c1nc3c(=O)[nH]c(N)nc3n1Cc1ccc(F)cc1)c1nnc(C)n1-2` [Example 52, (2E)-3-(2-Amino-9-(4-fluorobenzyl)-6-oxo-6,9-dihydro-1H-purin-8-yl)-N-(14-((6S)-4-(4-chlorophenyl)-2,3,9-trimethyl-6H-thieno[3,2-f][1,2,4]triazolo[4,3-a][1,4]diazepin-6-yl)-13-oxo-3,6,9-trioxa-12-azatetradec-1-yl)acrylamide], the “Activity value (Brd4/actin of drug-treated cells relative to drug-untreated control)” value in test [1] (BRD4, 10 uM) was found to be 0.8.
With `CC(=O)N[C@@H](CSc1nc2c(=O)[nH]c(N)nc2n1Cc1ccc(F)cc1)C(=O)NCCOCCOCCOCCOCCOCCCCCCCl` [Example 56, N^2-Acetyl-S-(2-amino-9-(4-fluorobenzyl)-6-oxo-6,9-dihydro-1H-purin-8-yl)-N-(21-chloro-3,6,9,12,15-pentaoxahenicos-1-yl)-L-cysteinamide], the “Activity value (GFP/actin of drug-treated cells relative to drug-untreated control)” value in test [2] (0h) worked out at 1.0; in test [2] (24 h) it was 0.3; in test [3], 0.55; in test [4] (0h), 1.0; in test [4] (24 h), 1.1.
Turning to `CC(=O)N[C@@H](CSc1nc2c(=O)[nH]c(N)nc2n1Cc1ccc(F)cc1)C(=O)NCCCOCCOCCOCCCNC(=O)C[C@@H]1N=C(c2ccc(Cl)cc2)c2c(sc(C)c2C)-n2c(C)nnc21` [Example 57, N^2-Acetyl-S-(2-amino-9-(4-fluorobenzyl)-6-oxo-6,9-dihydro-1H-purin-8-yl)-N-(1-((6S)-4-(4-chlorophenyl)-2,3,9-trimethyl-6H-thieno[3,2-f][1,2,4]triazolo[4,3-a][1,4]diazepin-6-yl)-2-oxo-7,10,13-trioxa-3-azahexadecan-16-yl)-L-cysteinamide], the “Activity value (Brd4/actin of drug-treated cells relative to drug-untreated control)” value in test [5] came out at 0.9.
With `Cc1sc2c(c1C)C(c1ccc(Cl)cc1)=N[C@@H](CC(=O)NCCCOCCOCCOCCCNc1nc3c(=O)[nH]c(N)nc3n1Cc1ccc(F)cc1)c1nnc(C)n1-2` [Example 58, N-(3-(2-(2-(3-((2-Amino-9-(4-fluorobenzyl)-6-oxo-6,9-dihydro-1H-purin-8-yl)amino)propoxy)ethoxy)ethoxy)propyl)-2-((6S)-4-(4-chlorophenyl)-2,3,9-trimethyl-6H-thieno[3,2-f][1,2,4]triazolo[4,3-a][1,4]diazepin-6-yl)acetamide], in test [5], the “Activity value (Brd4/actin of drug-treated cells relative to drug-untreated control)” value was 0.8.
On to `CCC(C)(C)C(=O)C(=O)N1CCCCC1C(=O)O[C@H](CCc1ccc(OC)c(OC)c1)c1cccc(NC(=O)CCC(=O)NCCCOCCOCCOCCCNC(=O)[C@H](CSc2nc3c(=O)[nH]c(N)nc3n2Cc2ccc(F)cc2)NC(C)=O)c1` (stereo partly drawn) [Example 59, (1R)-1-(3-((18-((N-Acetyl-S-(2-amino-9-(4-fluorobenzyl)-6-oxo-6,9-dihydro-1H-purin-8-yl)-L-cysteinyl)amino)-4-oxo-9,12,15-trioxa-5-azaoctadecan-1-oyl)amino)phenyl)-3-(3,4-dimethoxyphenyl)propyl 1-(3,3-dimethyl-2-oxopentanoyl)piperidine-2-carboxylate], for which the “Activity value (FKBP12/actin of drug-treated cells relative to drug-untreated control)” value in test [6] is listed as 0.5.
As to `CO[C@@H]1[C@H](OC(=O)NCCCOCCOCCOCCCNC(=O)[C@H](CSc2nc3c(=O)[nH]c(N)nc3n2Cc2ccc(F)cc2)NC(C)=O)CC[C@]2(CO2)[C@H]1[C@@]1(C)O[C@@H]1CC=C(C)C` [Example 60, (3R,5S,6R)-5-Methoxy-4-((2R,3R)-2-methyl-3-(3-methylbut-2-en-1-yl)oxiran-2-yl)-1-oxaspiro[2.5]oct-6-yl (3-(2-(2-(3-((N-acetyl-S-(2-amino-9-(4-fluorobenzyl)-6-oxo-6,9-dihydro-1H-purin-8-yl)-L-cysteinyl)amino)propoxy)ethoxy)ethoxy)propyl)carbamate], the “Activity value (MetAP2/actin of drug-treated cells relative to drug-untreated control)” value in test [7] is 0.7.

Source of the values: patent US11986480B2, “Heterocyclic compound” (TOHOKU UNIVERSITY, priority 2017, dated 2024).
